One assay relates to HSV-2 G strain. Briefly: HSV-2 Antiviral Assay (Vero cells, cell viability). It is filed as cell-based. The conditions noted are these: Human alphaherpesvirus 2, Vero, 120 h, Vero cells, 160 TCID50 HSV-2 G strain, 5 days, cell viability. The method, boiled down:
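Vero cells (1.0×10^4/well, attached overnight) given 8-point 3-fold compound dilutions (0.5% DMSO) then infected with 160 TCID50 HSV-2 G strain in 2% FBS medium for 5 days at 37 °C. Protection read as cell viability by WST-8 absorbance at 460 and 620 nm after 3 h.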

A further assay concerns HSV-1. Nature of the assay: HSV-1 Antiviral Assay (Vero cells, cell viability). In kind it is cell-based. The conditions noted are these: Human alphaherpesvirus 1, 96 h; Vero cells, 80 TCID50 HSV-1, 4 days, cell viability; read-out: HSV-1 EC50. Here is the method: Vero cells were cultured in Dulbecco's Modified Eagle Medium (DMVEM) supplemented with […] and 100 units/mL penicillin and streptomycin. The cells were passaged 2-3 times per week to maintain sub-confluent densities.
Vero cells were seeded into 96-well plates at a density of 2.5×10^3 cells per well and allowed to attach overnight. Following attachment, the media was replaced with 50 μL of infection medium (DMVEM supplemented with 2% fetal bovine serum and 100 units/mL penicillin and streptomycin). A Tecan D300e digital dispenser was then used to add compounds to the culture using an 8-point 3-fold serial dilution format. The DMSO concentration was normalized to 0.5% for all treatments. Following compound addition, 50 μL of infection medium containing 80 TCID50 HSV-1 was added to the cells and incubated at 37° C. for 4 days. After the incubation, the plates were equilibrated to room temperature, the media was removed, and […] a 1:1 dilution of Cell titer glow and phosphate buffered saline was added to the cells. Following a 5-minute incubation, cell viability was quantified by measuring luminance using a Tecan Infinite M1000 Pro plate reader.

This passage reports EC50 results from patent US20260103471A1, “CYCLIC UREA THIAZOLYL COMPOUNDS FOR TREATMENT OF HSV” (Assembly Biosciences, Inc., priority 2022, published 2026).

Some results are limits rather than exact numbers.

With `Cc1nc(N2CC3(COC3)CN(c3ccc(-c4cc(F)ccc4F)cc3)C2=O)sc1S(C)(=O)=O` [Compound 436], the EC50 with HSV-2 G strain and with HSV-1 was less than 100 nM in each case.

Regarding `Cc1nc(N2CCCN(c3ccc(-c4cc(F)ccc4F)cc3)C2=O)sc1S(C)(=O)=O` [Compound 161], the EC50 in the assay with HSV-2 G strain and in the assay with HSV-1 was less than 100 nM each time.

Regarding `Cc1nc(N2CCCN(c3ccc(-c4cccc5c4cnn5C(C)C)cc3)C2=O)sc1S(N)(=O)=O` [Compound 56], the EC50 in the assay with HSV-2 G strain and in the assay on HSV-1 was 100 to 1000 nM throughout.

On to `Cc1nc(N2CCCN(c3ccc(-c4snc5ccccc45)cc3)C2=O)sc1S(N)(=O)=O` [Compound 305], for which the EC50 in the assay on HSV-2 G strain and in the assay on HSV-1 was less than 100 nM throughout.

With `Cc1nc(N2CCCN(c3ccc(-c4nccc5ccccc45)cc3)C2=O)sc1S(N)(=O)=O` [Compound 86], the EC50 with HSV-2 G strain and with HSV-1 was 100 to 1000 nM in each case.

`Cc1nc(N2C[C@H](C#N)CN(c3ccc(-c4cc(F)ccc4F)cc3)C2=O)sc1S(N)(=O)=O` (single isomer, unassigned) [Compound 361]: the EC50 in the assay with HSV-2 G strain and in the assay on HSV-1 was less than 100 nM throughout.

As for `Cc1nc(N2CC3(COC3)CN(c3ccc(-c4cc(F)cc(-c5cnn(C(F)F)c5)c4F)cc3)C2=O)sc1S(N)(=O)=O` [Compound 342], the EC50 in the assay with HSV-2 G strain and in the assay on HSV-1 was less than 100 nM throughout.

`Cc1nc(N2CCCN(c3ccc(-c4ccccc4F)cc3)C2=O)sc1S(C)(=O)=O` [Compound 164]: the EC50 with HSV-2 G strain and with HSV-1 was less than 100 nM throughout.

For the compound `Cc1nc(N2CCCN(c3ccc(-c4nsc5ccccc45)cc3)C2=O)sc1S(N)(=O)=O` [Compound 310], the EC50 in the assay with HSV-2 G strain and in the assay with HSV-1 was less than 100 nM in each case.

With `Cc1nc(N2CCCN(c3ccc(-c4ccccc4Cl)cc3)C2=O)sc1S(N)(=O)=O` [Compound 9], the EC50 in the assay with HSV-2 G strain and in the assay with HSV-1 was less than 100 nM throughout.

In the case of `CNS(=O)(=O)c1sc(N2CCCN(c3ccc(-c4ccccn4)cc3)C2=O)nc1C` [Compound 118], the EC50 in the assay on HSV-2 G strain and in the assay on HSV-1 was less than 100 nM each time.

Take `Cc1nc(N2CC3(COC3)CN(c3ccc(-c4cc(F)ccc4F)cc3)C2=O)sc1S(N)(=O)=O` [Compound 339, 2-(8-(2′,5′-difluoro-[1,1′-biphenyl]-4-yl)-7-oxo-2-oxa-6,8-diazaspiro[3.5]nonan-6-yl)-4-methylthiazole-5-sulfonamide]: the EC50 in the assay with HSV-2 G strain and with HSV-1 was less than 100 nM throughout.

As to `Cc1nc(N2CC3(CC3)CN(c3ccc(-c4cc(F)ccc4F)cc3)C2=O)sc1S(C)(=N)=O` (stereo not shown) [Compound 155], the EC50 with HSV-2 G strain and in the assay on HSV-1 was less than 100 nM each time.

Regarding `Cc1nc(N2CCCN(c3ccc(-c4ccccc4F)cc3F)C2=O)sc1S(=O)(=O)NC1CC1` [Compound 131], the EC50 in the assay with HSV-2 G strain and in the assay with HSV-1 was 100 to 1000 nM in each case.

With `CNS(=O)(=O)c1sc(N2CCCN(c3ccc(-c4ccccc4F)c(F)c3)C2=O)nc1C` [Compound 132], the EC50 (as a rule, the concentration at which the effect is half-maximal) with HSV-2 G strain is less than 100 nM; in the assay on HSV-1, 100 to 1000 nM.

On to `Cc1nc(N2CCCN(c3ccc(-c4cc(F)cc5nsnc45)cc3)C2=O)sc1S(N)(=O)=O` [Compound 259], for which the EC50 with HSV-2 G strain and in the assay with HSV-1 was less than 100 nM in each case.

As to `Cc1nc(N2CCCN(c3ccc(-c4cc(F)cc(F)c4F)cc3)C2=O)sc1S(N)(=O)=O` [Compound 7], the EC50 in the assay on HSV-2 G strain and in the assay on HSV-1 was less than 100 nM throughout.

`Cc1nc(N2C[C@H](C)CN(c3ccc(-c4ccccc4Cl)cc3)C2=O)sc1S(N)(=O)=O` (single isomer, unassigned) [Compound 322]: the concentration for a half-maximal effect (EC50) in the assay with HSV-2 G strain and with HSV-1 was less than 100 nM in each case.

On to `Cc1nc(N2CCCN(c3ccc(-c4cc(F)ccc4F)cc3)C2=O)sc1S(=O)(=O)NC1CC1` [Compound 117], for which the EC50 in the assay on HSV-2 G strain and with HSV-1 was less than 100 nM each time.

Take `Cc1nc(N2CCCN(c3ccc(-c4cc(F)ccc4C#N)cc3)C2=O)sc1S(N)(=O)=O` [Compound 24]: the EC50 with HSV-2 G strain and with HSV-1 was less than 100 nM throughout.

In the case of `Cc1nc(N2CC3(CC3)CN(c3ccc(-c4cc(F)ccc4F)cc3)C2=O)sc1[S@](C)(=N)=O` (single isomer, unassigned) [Compound 156], the EC50 in the assay with HSV-2 G strain and in the assay on HSV-1 was less than 100 nM throughout.

In the case of `CC(=O)N1CC2(C1)CN(c1ccc(-c3cc(F)ccc3F)cc1)C(=O)N(c1nc(C)c(S(N)(=O)=O)s1)C2` [Compound 338], the EC50 with HSV-2 G strain and in the assay on HSV-1 was 100 to 1000 nM each time.

In the case of `Cc1nc(N2CCCN(c3ccc(-c4cccc5c4OC(F)(F)O5)cc3)C2=O)sc1S(N)(=O)=O` [Compound 80], the EC50 in the assay with HSV-2 G strain and in the assay on HSV-1 was less than 100 nM each time.

As to `Cc1nc(N2CCCN(c3ccc(-c4cccc5c4cnn5CC(C)(C)O)cc3)C2=O)sc1S(N)(=O)=O` [Compound 60], the EC50 with HSV-2 G strain and in the assay on HSV-1 was 1000 to 5000 nM each time.

Regarding `CNS(=O)(=O)c1sc(N2CCCCN(c3ccc(-c4ccccn4)cc3)C2=O)nc1C` [Compound 138], the concentration giving a half-maximal response (EC50) in the assay on HSV-2 G strain and with HSV-1 was less than 100 nM in each case.

As to `Cc1nc(N2CC(C(C)(C)F)CN(c3ccc(-c4cc(F)ccc4F)cc3)C2=O)sc1S(N)(=O)=O` (stereo not shown) [Compound 369], the EC50 in the assay with HSV-2 G strain and in the assay on HSV-1 was less than 100 nM each time.

Consider `Cc1nc(N2C[C@H](C)CN(c3ccc(-c4ccccc4F)cc3)C2=O)sc1S(N)(=O)=O` [Compound 316], for which the EC50 in the assay with HSV-2 G strain and in the assay on HSV-1 was less than 100 nM each time.

Regarding `Cc1nc(N2CCCN(c3ccc(-c4cc(F)ccc4F)cc3)C2=O)sc1S(=O)(=O)C1CC1` [Compound 163], the EC50 in the assay on HSV-2 G strain and in the assay on HSV-1 was 100 to 1000 nM throughout.

With `Cc1nc(N2CC(C)(C)CN(c3ccc(-c4ccccc4F)cc3)C2=O)sc1S(N)(=O)=O` [Compound 105], the EC50 with HSV-2 G strain and in the assay with HSV-1 was less than 100 nM each time.

Take `CNS(=O)(=O)c1sc(N2CCCN(c3ccc(-c4ccccn4)c(F)c3)C2=O)nc1C` [Compound 128]: the EC50 in the assay with HSV-2 G strain and in the assay on HSV-1 was less than 100 nM each time.

Regarding `Cc1nc(N2CCCN(c3ccc(-c4cccc5nn(C(C)C)cc45)cc3)C2=O)sc1S(N)(=O)=O` [Compound 59], the EC50 in the assay with HSV-2 G strain and in the assay with HSV-1 was 1000 to 5000 nM in each case.

`Cc1nc(N2CCCN(c3ccc(-c4cc(F)cc(-c5cnn(C(F)F)c5)c4F)cc3)C2=O)sc1S(N)(=O)=O` [Compound 228, 2-(3-(3′-(1-(difluoromethyl)-1H-pyrazol-4-yl)-2′,5′-difluoro-[1,1′-biphenyl]-4-yl)-2-oxotetrahydropyrimidin-1(2H)-yl)-4-methylthiazole-5-sulfonamide]: the EC50 with HSV-2 G strain and in the assay with HSV-1 was less than 100 nM in each case.

Regarding `Cc1nc(N2CCCN(c3ccc(-c4cccc5cc(C#N)sc45)cc3)C2=O)sc1S(N)(=O)=O` [Compound 274], the EC50 in the assay on HSV-2 G strain and in the assay on HSV-1 was less than 100 nM throughout.

Take `Cc1nc(N2CCCN(c3ccc(-c4ccc5ncn(C)c5c4)cc3)C2=O)sc1S(N)(=O)=O` [Compound 75]: the 50% effective concentration (EC50) with HSV-2 G strain and with HSV-1 was 1000 to 5000 nM in each case.

For `CNS(=O)(=O)c1sc(N2CCCN(c3ccc(-c4ncccc4F)cc3)C2=O)nc1C` [Compound 122], the EC50 with HSV-2 G strain and in the assay on HSV-1 was less than 100 nM each time.
